Measurements as given in patent US20040248804A1, “Nasal administration of the LH-RH analog Leuprolide” (priority 2003, published 2004).

Tests used:
[1] = human, in vivo
Description: The design of the experiment was a five-way, crossover, randomized, partially double-blind, volunteer trial. Women were given leuprolide 1 mg IV and SQ, and IN as novel formulation at 1 mg (one spray), 2 mg (one spray) and 6 mg (three sprays), in random order. There was one dosing regimen on each of five separate days, with each day separated by at least two washout days. Blood for leuprolide measurement was collected via indwelling catheter at baseline and on eighteen occasions, up to twenty four hours after dosing. Plasma was separated and the leuprolide concentrations determined by enzyme linked immunosorbant assays (ELISA). Throughout the study subjects were monitored for adverse events and given nasal examinations.

[2] = Plasma leuprolide pharmacokinetics after IV, SQ and intranasal (IN) administration, five-way crossover volunteer trial, ELISA; design: Absolute bioavailability, % of IV: dose or concentration left out as unconfirmed; details: human, in vivo; for bioavailability / AUC / Cmax: female
Description: In the following example, the inventors sought to compare the intranasal (“IN”) administration of leuprolide using the methods and compositions of the invention with prior art methods of administration (subcutaneous (“SQ”) and intravenous (“IV”)).

CC(=O)O.CCNC(=O)[C@@H]1CCCN1C(=O)[C@H](CCCNC(=N)N)NC(=O)[C@H](CC(C)C)NC(=O)[C@@H](CC(C)C)NC(=O)[C@H](Cc1ccc(O)cc1)NC(=O)[C@H](CO)NC(=O)[C@H](Cc1c[nH]c2ccccc12)NC(=O)[C@H](Cc1c[nH]cn1)NC(=O)[C@@H]1CCC(=O)N1 [leuprolide, 5-oxo-L-prolyl-L-histidyl-L-tryptophyl-L-seryl-L-tyrosyl-D-leucyl-L-leucyl-L-arginyl-N-ethyl-L-prolinamide acetate salt]
Adverse events noted [1]: rhinorrhea and altered taste sensation | Serious adverse events [1]: No serious adverse events were reported | bioavailability [2]: 95 ± 17% | AUC ([2]; inhaled or intranasal, 1 mg): 15 ± 8 ng·h/mL | Cmax ([2]; inhaled or intranasal, 1 mg): 5 ± 3 ng/mL | bioavailability ([2]; inhaled or intranasal, 1 mg): 13 ± 7% | AUC ([2]; inhaled or intranasal, 2 mg): 31 ± 16 ng·h/mL | Cmax ([2]; inhaled or intranasal, 2 mg): 11 ± 6 ng/mL | bioavailability ([2]; inhaled or intranasal, 2 mg): 14 ± 7% | AUC ([2]; inhaled or intranasal, 6 mg): 56 ± 28 ng·h/mL | Cmax ([2]; inhaled or intranasal, 6 mg): 22 ± 11 ng/mL | AUC ([2]; iv, 1 mg): 120 ± 25 ng·h/mL | Cmax ([2]; iv, 1 mg): 85 ± 33 ng/mL | AUC ([2]; sc, 1 mg): 111 ± 21 ng·h/mL | Cmax ([2]; sc, 1 mg): 35 ± 8 ng/mL | Absolute bioavailability, % of IV [2]: 8 ± 3 % of IV | Absolute bioavailability, % of IV ([2]; iv): 100 % of IV
